Values quoted from earlier work in publication PMC7870075, “Physicochemical properties and formulation development of a novel compound inhibiting Staphylococcus aureus biofilm formation” (PLoS ONE, 2021).

Design: method as in PMID 23433668
Conditions: cited from earlier work

## C=CCn1c(NCC)nc2c(c1=O)C(C)(C)Cc1cc(OC)ccc1-2 [CCG-203592]
  half-life in mouse liver microsomes (t1/2): 48 s
